Series [1] in a line: Solubility of itraconazole in HBSS (centrifugation, HPLC of supernatant). The class given is physicochemical. To be noted: Hank's Balanced Salt Solution (HBSS), aqueous buffer, thermodynamic from solid, 20° C., 10 min vortex, API/excipient 1/3, total dispersed API 2,500 μg/mL, 16,000 g 10 min, read-out: water solubility of itraconazole (concentration in supernatant). The method, then: FIG. 6 provides a graph showing the solubility of itraconazole when incorporated with OHPP, HPMCAS, and Soluplus, as compared with that of itraconazole alone. The ratio between itraconazole and excipient was 1/3, with total dispersed itraconazole of 2,500 μg/mL in HBSS buffer (20° C.). The mixing time was 10 min before subjecting the dispersion to centrifugation to collect supernatant for itraconazole quantification.
Thereafter, the dispersions were centrifuged at 16,000 g for 10 min, and the supernatants were collected for itraconazole quantification using HPLC. The concentration of itraconazole in the supernatant was considered as its water solubility.

The next series can be described thus: physchem. The class given is physicochemical. The method, then: FIG. 7 provides a graph showing the solubility of curcumin when incorporated with OHPP, HPMCAS, and Soluplus, as compared with that of curcumin alone. The ratio between curcumin and excipient was 1/9, with total dispersed curcumin of 1,000 μg/mL in HBSS buffer (37° C.). The mixing time was 2 h before subjecting the dispersion to centrifugation to collect supernatant for curcumin quantification.
Thereafter, the dispersions were centrifuged at 16,000 g for 10 min, and the supernatants were collected for curcumin quantification using HPLC. The concentration of curcumin in the supernatant was considered as its water solubility.

Series [2] is described as follows: Solubility of docetaxel in HBSS (centrifugation, HPLC of supernatant). Type of series: physicochemical. To be noted: Hank's Balanced Salt Solution (HBSS), aqueous buffer, thermodynamic from solid, 20° C., 10 min vortex, API/excipient 1/3, total dispersed API 2,500 μg/mL, 16,000 g 10 min, read-out: water solubility of docetaxel (concentration in supernatant). The method, then: FIG. 5 provides a graph showing the solubility of docetaxel when incorporated with OHPP, HPMCAS, and Soluplus, as compared with that of docetaxel alone. The ratio between docetaxel and excipient was 1/3, with total dispersed docetaxel of 2,500 μg/mL in HBSS buffer (20° C.). The mixing time was 10 min before subjecting the dispersion to centrifugation to collect supernatant for docetaxel quantification.
Thereafter, the dispersions were centrifuged at 16,000 g for 10 min, and the supernatants were collected for docetaxel quantification using HPLC. The concentration of docetaxel in the supernatant was considered as its water solubility.

Series [3] is described as follows: Solubility of paclitaxel in HBSS (centrifugation, HPLC of supernatant). Type of series: physicochemical. The note with it: Hank's Balanced Salt Solution (HBSS), aqueous buffer, thermodynamic from solid, 37° C., 2 h mixing, API/excipient 1/3, total dispersed API 2,500 μg/mL, 16,000 g 10 min, read-out: water solubility of paclitaxel (concentration in supernatant). As for the experimental part:
The mixing time was 2 h before subjecting the dispersion to centrifugation to collect supernatant for paclitaxel quantification.
Thereafter, the dispersions were centrifuged at 16,000 g for 10 min, and the supernatants were collected for paclitaxel quantification using HPLC. The concentration of paclitaxel in the supernatant was considered as its water solubility.

A short description of series [4]: Solubility of celecoxib in HBSS (centrifugation, HPLC of supernatant). The class given is physicochemical. To be noted: Hank's Balanced Salt Solution (HBSS), aqueous buffer, thermodynamic from solid, 37° C., 2 h mixing, API/excipient 1/5, total dispersed API 1,000 μg/mL, 16,000 g 10 min, read-out: water solubility of celecoxib (concentration in supernatant). As for the experimental part: FIG. 8 provides a graph showing the solubility of celecoxib when incorporated with OHPP, HPMCAS, and Soluplus, as compared with that of celecoxib alone. The ratios between celecoxib and each excipient was 1/5, with total dispersed API of 1,000 μg/mL in HBSS buffer (37° C.). The mixing time was 2 h before subjecting the dispersion to centrifugation to collect supernatant for celecoxib quantification. The weight ratio of celecoxib, OHPP, and HPMCAS was 1, 3, and 2 respectively for the Cel-OHPP-HPMCAS preparation.
Thereafter, the dispersions were centrifuged at 16,000 g for 10 min, and the supernatants were collected for celecoxib quantification using HPLC. The concentration of celecoxib in the supernatant was considered as its water solubility.

Series [5] can be described thus: Solubility of niclosamide in HBSS (centrifugation, HPLC of supernatant). Type of series: physicochemical. The note with it: Hank's Balanced Salt Solution (HBSS), aqueous buffer, thermodynamic from solid, 37° C., 2 h mixing, API/excipient 1/3, total dispersed API 2,500 μg/mL, 16,000 g 10 min, read-out: water solubility of niclosamide (concentration in supernatant). As for the experimental part: FIG. 2 provides a graph showing the solubility of niclosamide when incorporated with OHPP, HPMCAS, and Soluplus (Soluplus®, BASF), as compared with that of niclosamide alone. The ratio between niclosamide and excipient was 1/3, with total dispersed API of 2,500 μg/mL in HBSS buffer (37° C.). The mixing time was 2 h before subjecting the dispersion to centrifugation to collect supernatant for API quantification.
Thereafter, the dispersions were centrifuged at 16,000 g for 10 min, and the supernatants were collected for niclosamide quantification using HPLC. The concentration of niclosamide in the supernatant was considered as its water solubility.

Series [6] can be described thus: Solubility of griseofulvin in HBSS (centrifugation, HPLC of supernatant). Type of series: physicochemical. The note with it: Hank's Balanced Salt Solution (HBSS), aqueous buffer, thermodynamic from solid, 37° C., 2 h mixing, API/excipient 1/3, total dispersed API 2,500 μg/mL, 16,000 g 10 min, read-out: water solubility of griseofulvin (concentration in supernatant). As for the experimental part: The mixing time was 2 h before subjecting the dispersion to centrifugation to collect supernatant for griseofulvin quantification.
Thereafter, the dispersions were centrifuged at 16,000 g for 10 min, and the supernatants were collected for griseofulvin quantification using HPLC. The concentration of griseofulvin in the supernatant was considered as its water solubility.

In brackets after ≈: the same amount, converted by molar mass.

Experimental for Caco-2 cell monolayer: Nic-1000 and Nic-100: supernatant from centrifuged dispersion of pure niclosamide in HBSS at dispersing dose of 1000 and 100 μg/mL, respectively. Cel-1000 and Cel-100: supernatant from centrifuged dispersion of pure celecoxib in HBSS at dispersing dose of 1000 and 100 μg/mL, respectively. Nic-OHPP-100: supernatant from centrifuged dispersion of Nic-OHPP in HBSS at dispersing dose of 100 μg/mL (for pure niclosamide). Cel-OHPP-HPMCAS-100: supernatant of Cel-OHPP-HPMCAS dispersed in HBSS buffer at 100 μg/mL.
Caco-2 cells were seeded in the inserts with tissue-culture-treated polyester membranes (Transwells, 0.4 μm pore size, Corning) at a density of 1×10^4 cells/well. After seeding, the medium was changed every other day until the day of the permeation test. All tests were performed on day 21 after seeding. For the test, the culture medium was removed and the cells were washed twice with PBS buffer. The cells were then equilibrated in HBSS for 15 min prior to each study, and then apical and basolateral solution were aspirated.
To measure the apical-to-basolateral permeation of API, 0.5 mL of each test solution was added to the apical compartment, and the basolateral compartment received 1.5 mL HBSS. As a control, reference cells were incubated with 0.5 mL blank HBSS on the apical side, while the basolateral side received 1.5 mL of HBSS. All cultures were incubated in an incubator (5% CO2, 37° C.) for 2 h. After the incubation, the apical and the basolateral solutions were collected respectively and their amounts of API were determined using HPLC.
The loaded dispersions were prepared in two steps: (1) dispersing API-excipient complex solid and API alone in HBSS at the doses of 1000 μg/mL or 100 μg/mL, and (2) subjecting each dispersion to centrifugation (16,000 g, 5 min) to collect supernatant. The supernatants were loaded in the apical compartments of inserts.

On to `CCC(C)n1ncn(-c2ccc(N3CCN(c4ccc(OCC5COC(Cn6cncn6)(c6ccc(Cl)cc6Cl)O5)cc4)CC3)cc2)c1=O` (centres unmarked) [itraconazole], for which, in series [1], the solubility at 10 min is around 0.96 µg/mL.
With “octenylsuccinate hydroxypropyl phytoglycogen [OHPP]”, in “physchem”, the “increase of the solubility of curcumin in aqueous solution by use of OHPP” value is “at least 100 times”. In the series with Caco-2 cell monolayer, the “permeation of API through Caco-2 monolayer when OHPP was used” value was “substantially increased”.
In the case of `CC(=O)O[C@@]12CO[C@@H]1C[C@H](O)[C@@]1(C)C(=O)[C@H](O)C3=C(C)[C@@H](OC(=O)[C@H](O)[C@@H](NC(=O)OC(C)(C)C)c4ccccc4)C[C@@](O)([C@@H](OC(=O)c4ccccc4)[C@H]21)C3(C)C` [docetaxel], in series [2], the solubility at 10 min was around 11.1 µg/mL.
In the case of `CC(=O)O[C@H]1C(=O)[C@@]2(C)[C@H]([C@H](OC(=O)c3ccccc3)[C@]3(O)C[C@H](OC(=O)[C@H](O)[C@@H](NC(=O)c4ccccc4)c4ccccc4)C(C)=C1C3(C)C)[C@]1(OC(C)=O)CO[C@@H]1C[C@@H]2O` [paclitaxel], in series [3], the solubility at 2 h was around 6.2 µg/mL.
In the case of `Cc1ccc(-c2cc(C(F)(F)F)nn2-c2ccc(S(N)(=O)=O)cc2)cc1` [celecoxib], the solubility at 2 h in series [4] is around 12.8 µg/mL. Also, in the series with Caco-2 cell monolayer, the “permeation of API through Caco-2 monolayer, API alone” value is “not sufficient to provide an appreciable permeation”.
`COc1cc(/C=C/C(=O)CC(=O)/C=C/c2ccc(O)c(OC)c2)ccc1O` [curcumin] registered a solubility at 2 h in “physchem” (37 °C, aqueous buffer, thermodynamic from solid) of around 7.2 µg/mL (≈ 19.5 µM).
As to `O=C(Nc1ccc([N+](=O)[O-])cc1Cl)c1cc(Cl)ccc1O` [niclosamide], in the series on Caco-2 cell monolayer, the “permeation of API through Caco-2 monolayer, API alone” value is “not sufficient to provide an appreciable permeation”. Moreover, the solubility at 2 h in series [5] is around 13.2 µg/mL.
As for `COC1=CC(=O)C[C@@H](C)[C@]12Oc1c(Cl)c(OC)cc(OC)c1C2=O` [griseofulvin], the solubility at 2 h in series [6] was around 17.5 µg/mL.

The values above are taken from patent US10653784B2, “Hydrophobic highly branched carbohydrate polymers” (Purdue Research Foundation, priority 2015, dated 2020).
